Assays:
[1] = system: type 2 (or type II) diabetes rodent models; settings: type 2 diabetes rodent models; cited from earlier work
[2] = system: patients with type 2 diabetes inadequately controlled by current oral antidiabetic therapy; experiment: Same clinical study: cardiovascular safety endpoints (body weight, blood pressure, pulse rate, lipid profiles); assay type: in vivo, human; design: Total Cholesterol, Change / Triglyceride, Change / HDL, Change / LDL, Change: unit not given here
Source text: (§1) Subjects: Male or female type 2 DM patients (BMI≦35 kg/m^2) on a stable oral hypoglycemic […] for at least 3 months prior to screening visit. The hemoglobin A1c (HbA1c) measurements taken at a screening visit were between 7% and 12%. Patients enrolled in the study were receiving one or more oral antihyperglycemic agents including sulfonylurea, biguanides, alpha-glucosidase inhibitors, thiazolidinediones (TZDs) and nonsulfonylurea insulin secretagogues.
(§2) Procedure: This was a randomized, double-blind, parallel comparison study comparing 50 mg diacerein versus placebo in patients with type 2 DM inadequately controlled by previous antidiabetic therapy. The starting dose of diacerein was 50 mg once daily every morning for 4 weeks and could be adjusted up to 50 mg twice daily (morning and evening) if patients had become accustomed to the medication. Patients were screened for eligibility four weeks (week-4) prior to entry at baseline (week 0). During this 4-week screening period, the participants continued their previous antidiabetic therapy, dietary habits and other lifestyle habits. In order to be eligible for randomization following the 4-week screening period, patients must not have experienced hypoglycemia and must have had two fasting plasma glucose (FPG) measurements of between 135 to 250 mg/dL. At the end of the screening period, patients who met eligibility requirements were randomly assigned to receive diacerein 50 mg or placebo twice a day for 24 weeks observation. During treatment/observation period, the previous antidiabetic therapy including the class and/or dosage was not changed. Patients were asked to attend the center on eight occasions (screening, baseline, week 4, 8, 12, 16, 20 and 24) during the trial. The total study duration including the screening period for each patient was 28 weeks. There was a two weeks follow-up period after completion of the treatment/observation. During this follow-up period, patients were followed for adverse events.
For the efficacy parameters, descriptive statistics were presented by visit. Statistical analysis was performed to assess the mean change from baseline. The area under the concentration-time curve (AUC) was used for evaluating the parameters measured by oral glucose tolerance test.

[3] = system: patients with type 2 diabetes inadequately controlled by current oral antidiabetic therapy; experiment: Same clinical study: adverse events; assay type: in vivo, human
Method: as §2
Adverse events were summarized according to the Medical Dictionary for Regulatory Activities (MedDRA) adverse event dictionary. The tabulations counted the number of patients reporting individual preferred term adverse events and the total number of patients reporting at least one adverse event per system organ class. If appropriate, the incidence of adverse events was compared for each of the two treatment groups using Fisher's Exact test.

[4] = system: patients with type 2 diabetes inadequately controlled by current oral antidiabetic therapy; experiment: Same clinical study: fasting plasma glucose; assay type: in vivo, human; settings: at 24 weeks
Source text: as §1
Procedure: This was a randomized, double-blind, parallel comparison study comparing 50 mg diacerein versus placebo in patients with type 2 DM inadequately controlled by previous antidiabetic therapy. The starting dose of diacerein was 50 mg once daily every morning for 4 weeks and could be adjusted up to 50 mg twice daily (morning and evening) if patients had become accustomed to the medication. Patients were screened for eligibility four weeks (week-4) prior to entry at baseline (week 0). During this 4-week screening period, the participants continued their previous antidiabetic therapy, dietary habits and other lifestyle habits. […]
(§3) For the efficacy parameters, descriptive statistics were presented by visit. […] The area under the concentration-time curve (AUC) was used for evaluating the parameters measured by oral glucose tolerance test.

[5] = system: patients with type 2 diabetes inadequately controlled by current oral antidiabetic therapy; experiment: Same clinical study: homeostatic model assessment (HOMA) beta cell function; assay type: in vivo, human
Source text: as §1
as §2, with “There was a two weeks follow-up period after completion of the treatment/observation. During this follow-up period, patients were followed for adverse events.” left out
as §3

[6] = system: patients with type 2 diabetes inadequately controlled by current oral antidiabetic therapy; experiment: Randomized, double-blind, placebo-controlled study of add-on diacerein: glycosylated hemoglobin (HbA1c); assay type: in vivo, human
Source text: Primary Endpoints: To compare the efficacy of add-on diacerein with no add-on treatment (placebo) on glycosylated hemoglobin (HbA1c) after 24-week double-blind treatment in type 2 DM patients inadequately controlled by previous antidiabetic therapy.
as §1
as §2, with “During this follow-up period, patients were followed for adverse events.” left out
Statistical method(s) for efficacy/safety evaluations: The difference (diacerein minus placebo) of HbA1c reduction between the two treatment groups was analyzed by analysis of covariance (ANCOVA) with baseline value as covariate. The corresponding 95% confidence interval was calculated. Within-group changes were also analyzed, with paired t test used to evaluate differences from baseline in each treatment group.
For the efficacy parameters, descriptive statistics were presented by visit. […] The area under the concentration-time curve (AUC) was used for evaluating the parameters measured by oral glucose tolerance test. […]

[7] = Week 24, N 28, in mg/dL (unit assumed)
[8] = Week 24, N 28, in mmHg (unit assumed)

In the case of O=C(O)c1cc(O)c2c(c1)C(=O)c1cccc(O)c1C2=O [Rhein, 9,10-dihydro-4,5-dihydroxy-9,10-dioxo-2-anthracenecarboxylic acid], the “blood glucose concentration control” value [1] is listed as “control the blood glucose concentration”.

With CC(=O)Oc1cccc2c1C(=O)c1c(OC(C)=O)cc(C(=O)O)cc1C2=O [diacerein, 4,5-bis(acetyloxy)-9,10-dioxo-2-anthracene carboxylic acid] the “pulse rate, Mean ± SD” value ([2]; Week 24, N 28) was 77.18 ± 10.22, the “HDL, Mean ± SD” value [2, 7] was 42.25 ± 10.40 and the “LDL, Mean ± SD” value [2, 7] was 91.64 ± 27.28. For the same molecule, the “Total Cholesterol, Mean ± SD” value [2, 7] was 164.61 ± 30.09, the “Triglyceride, Mean ± SD” value [2, 7] was 159.18 ± 97.07 and the “Systolic blood pressure, Mean ± SD” value [2, 8] was 130.32 ± 16.85. For the same molecule, the “diastolic blood pressure, Mean ± SD” value [2, 8] was 78.86 ± 8.20, the “HDL, Change” value ([2]; Week 24 vs baseline) was −0.96 ± 10.27 and the “LDL, Change” value ([2]; Week 24 vs baseline) was −6.09 ± 19.75. For the same molecule, the “Systolic blood pressure, Change” value ([2]; Week 24 vs baseline) was −0.25 ± 14.38, the “Total Cholesterol, Change” value ([2]; Week 24 vs baseline) was −8.46 ± 32.20 and the “Triglyceride, Change” value ([2]; Week 24 vs baseline) was −7.57 ± 98.79. For the same molecule, the “diastolic blood pressure, Change” value ([2]; Week 24 vs baseline) was −1.14 ± 8.78, the “pulse rate, Change” value ([2]; Week 24 vs baseline) was 1.46 ± 9.00 and the “risks of heart attack and cardiovascular disorders” value ([2]; adding diacerein to current anti-diabetic treatment) was “did not increase”. The “differences between treatment groups in body weight, blood pressure, pulse rate and lipid profiles” value ([2]; between baseline levels and levels at week 24, diacerein vs placebo) was “no statistically significant differences”, the “difference between the two groups in the incidence of patients complaining of adverse events” value ([3]; diacerein vs placebo) was “No statistically significant difference” and the “patients reporting at least one adverse effect (AE), number” value ([3]; during the study period) was 20 patients. For the same molecule, the “patients reporting at least one adverse effect (AE), percent” value ([3]; during the study period) was 54.1%, the symptomatic hypoglycemia ([3]; even in patients with a marked improvement in HbA1c levels) was “not observed” and the “fasting plasma glucose levels versus placebo group” value [4] was “consistently lower”. The “within-group change from baseline in HOMA-BETA” value ([5]; over 24 weeks) was “significant”, the “HOMA beta cell function (HOMA-BETA) course over treatment” value ([5]; over the course of treatment) was “continual improvement” and the HOMA-BETA ([5]; week 24) was 56.26. For the same molecule, the “between-group difference in HbA1c change (diacerein vs placebo)” value ([6]; 24 weeks, P=0.0158) was 0.63 percentage point, the “average absolute difference in HbA1c levels between baseline and 24 weeks (reduction)” value ([6]; add-on diacerein 50 mg twice a day, 24 weeks, within group) was 0.63 percentage point and the “HbA1c absolute reduction versus the placebo group” value ([6]; after 20 weeks, P=0.0223) was 0.60%. For the same molecule, the “number of patients who had any reduction in HbA1c levels” value ([6]; at 24 weeks) was 20 of 26.
